{"source": "PubChem BioAssay AID602235", "about": "(The Scripps Research Institute Molecular Screening Center, 2012)", "note": "pIC50: −log10 of the molar value. Active and inactive are the calls of the source. How the calls were made is not given here.", "data": [{"target": "Nuclear receptor coactivator 1 (Homo sapiens) (UniProt Q15788)", "sequence (Q15788 whole entry, looked up)": "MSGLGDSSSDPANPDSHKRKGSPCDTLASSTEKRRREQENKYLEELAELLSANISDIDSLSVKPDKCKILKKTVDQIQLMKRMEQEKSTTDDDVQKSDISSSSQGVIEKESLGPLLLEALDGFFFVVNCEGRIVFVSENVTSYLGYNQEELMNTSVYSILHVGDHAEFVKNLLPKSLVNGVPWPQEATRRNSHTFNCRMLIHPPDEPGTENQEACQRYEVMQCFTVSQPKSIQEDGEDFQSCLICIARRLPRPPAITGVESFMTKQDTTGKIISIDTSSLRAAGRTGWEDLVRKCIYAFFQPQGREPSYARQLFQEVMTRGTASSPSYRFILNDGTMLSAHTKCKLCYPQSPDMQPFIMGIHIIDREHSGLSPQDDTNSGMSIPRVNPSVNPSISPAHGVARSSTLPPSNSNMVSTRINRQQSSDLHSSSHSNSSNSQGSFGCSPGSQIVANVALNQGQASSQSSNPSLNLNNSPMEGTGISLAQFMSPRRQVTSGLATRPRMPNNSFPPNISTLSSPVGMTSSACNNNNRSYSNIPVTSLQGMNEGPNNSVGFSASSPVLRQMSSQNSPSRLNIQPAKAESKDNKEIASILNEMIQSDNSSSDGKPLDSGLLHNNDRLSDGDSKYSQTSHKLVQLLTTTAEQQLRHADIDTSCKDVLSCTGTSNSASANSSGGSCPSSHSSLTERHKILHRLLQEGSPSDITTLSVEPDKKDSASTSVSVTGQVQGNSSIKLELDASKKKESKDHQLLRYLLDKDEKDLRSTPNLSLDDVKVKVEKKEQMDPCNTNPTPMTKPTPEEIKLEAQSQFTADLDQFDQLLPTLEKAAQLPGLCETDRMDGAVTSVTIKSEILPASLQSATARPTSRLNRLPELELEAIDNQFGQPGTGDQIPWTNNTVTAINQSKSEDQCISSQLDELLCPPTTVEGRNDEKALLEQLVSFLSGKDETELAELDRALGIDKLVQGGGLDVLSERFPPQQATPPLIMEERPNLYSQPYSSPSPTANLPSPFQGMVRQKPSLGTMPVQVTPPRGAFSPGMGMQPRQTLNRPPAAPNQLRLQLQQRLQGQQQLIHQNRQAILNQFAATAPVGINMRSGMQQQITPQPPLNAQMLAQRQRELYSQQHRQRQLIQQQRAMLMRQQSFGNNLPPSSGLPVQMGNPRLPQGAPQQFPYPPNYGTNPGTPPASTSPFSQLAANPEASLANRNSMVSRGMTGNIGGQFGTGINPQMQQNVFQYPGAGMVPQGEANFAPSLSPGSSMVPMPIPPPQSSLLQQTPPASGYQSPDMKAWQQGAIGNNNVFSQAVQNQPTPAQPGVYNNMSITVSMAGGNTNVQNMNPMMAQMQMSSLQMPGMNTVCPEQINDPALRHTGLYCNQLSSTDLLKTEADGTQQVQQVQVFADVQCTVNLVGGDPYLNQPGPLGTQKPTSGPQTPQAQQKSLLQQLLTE", "experiment": "SRC1 (NCOA1) coactivator inhibitors, dose response, cell-based, luciferase reporter, luminescence (AID 602235);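 further: cells transfected with pGL4.31 reporter plus pBIND-SRC1 vector; potency is for inhibitors that lower SRC1 reporter luminescence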", "values": [{"compound": "O=C(CCl)N(c1ccccc1)C1CCS(=O)(=O)C1", "note": "(stereo unspecified)", "pIC50": 5.55}, {"compound": "c1ccc(-c2csc3ncnc(NCCN4CCOCC4)c23)cc1", "IC50": "inactive"}, {"compound": "COc1cccc(/C=N/NC(=O)CNC(=O)C2COc3ccccc3O2)c1O", "note": "(stereo unspecified)", "IC50": "inactive"}, {"compound": "CCCCC(CC)COCCCN=Cc1c(O)[nH]c(=S)[nH]c1=O", "note": "(stereo unspecified)", "IC50": "inactive"}, {"compound": "N#Cc1c2ccc(O)cc2n2ccccc12", "IC50": "> 35.9 µM (inactive)"}, {"compound": "Cc1ccc2occ(/C=N/NC(=O)[C@@H](N)Cc3ccccc3)c(=O)c2c1", "pIC50": 5.09}, {"compound": "O=C(OC(c1ccccc1)c1nccc2ccccc12)c1ccccc1", "note": "(stereo unspecified)", "IC50": "> 11.9 µM (inactive)"}, {"compound": "CCn1ccnc1CN(C)Cc1cn[nH]c1-c1ccc(F)cc1F", "IC50": "inactive"}, {"compound": "NC(=O)c1cc(Sc2ccccc2)nc2ccccc12", "pIC50": 5.12}, {"compound": "CN(CC(=O)Nc1ccc(Cl)c(C(F)(F)F)c1)C(=O)C1CC(=O)N(c2ccc3c(c2)OCCO3)C1", "note": "(stereo unspecified)", "IC50": "inactive"}, {"compound": "CN(C)c1ccc(Nc2ncnc3ccc(Br)cc23)cc1", "pIC50": 5.00}, {"compound": "COc1cc(C(=O)N/N=C(\\c2ccccc2)c2ccccn2)cc(OC)c1OC", "IC50": "> 11.9 µM (inactive)"}, {"compound": "CN(c1ccc(C(=O)N2CCN(Cc3ccc4c(c3)OCO4)CC2)cc1)S(=O)(=O)c1ccccc1", "IC50": "> 35.9 µM (inactive)"}, {"compound": "COC(=O)c1cccc2c1-c1ccccc1/C2=N/O", "pIC50": 5.01}, {"compound": "O=C(NC(=S)Nc1ccc(N2CCN(C(=O)c3ccccc3)CC2)cc1)c1cccs1", "IC50": "inactive"}, {"compound": "COc1ccc(NC(=O)CN(C)C(=O)C2(c3ccccc3)CCCC2)cc1", "IC50": "inactive"}]}]}
